These results are taken from US11584765B2 (priority 2017, dated 2023).

This experiment has as its system C57BL/6 mice. The experiment in a line: animal or person. It counts as in vivo. The settings on record: Mus musculus, sc, 0.5 h, s.c. administration, 30 min, 55° C. water, read-out: ED50 (mg/kg) at 30 min on C57BL/6 mice in Warm-water Tail-flick Test.
Turning to `CCOCC1(CCc2ccccc2)CCN(CC2CCC(NC(C)=O)CC2)CC1.Cl` (stereo not drawn) [Compound 121, N-(4-((4-(ethoxymethyl)-4-phenethylpiperidin-1-yl)methyl)cyclo-hexyl)acetamide HCl], the ED50 is > 10 mg/kg. The same measure for `CCOCC1(OCc2ccccc2)CCN(Cc2ccc(NC(C)=O)cc2)CC1` [Compound 122, N-(4-((4-(benzyloxy)-4-(ethoxymethyl)piperidin-1-yl)methyl)phenyl)acetamide]: > 10 mg/kg. The figure for `CC(=O)Nc1ccc(CN2CCC(CCc3ccccc3)(COc3ccccn3)CC2)cc1` [Compound 123, N-(4-((4-phenethyl-4-((pyridin-2-yloxy)methyl)piperidin-1-yl)methyl)phenyl)acetamide] is > 10 mg/kg; for `CC(=O)Nc1ccc(CN2CCC(CCc3ccccc3)(Oc3ccccn3)CC2)cc1` [Compound 124, N-(4-((4-phenethyl-4-(pyridin-2-yloxy)piperidin-1-yl)methyl)phenyl)acetamide] it is > 10 mg/kg; for `CCOCC1(CCc2ccccc2)CCN(c2ccc(NC(C)=O)cc2)CC1` [Compound 125, N-(4-(4-(ethoxymethyl)-4-phenethylpiperidin-1-yl)phenyl)acetamide] it is > 10 mg/kg. Consider `CCOCC1(CCc2ccccc2)CCN(CCc2ccc(NC(C)=O)cc2)CC1` [Compound 126, N-(4-(2-(4-(ethoxymethyl)-4-phenethylpiperidin-1-yl)ethyl)phenyl)acetamide], for which the ED50 was > 10 mg/kg. The figure for `CCOCC1(CCc2ccccc2)CCN(c2ccc(N(C)C)cc2)CC1` [Compound 127, 4-(4-(ethoxymethyl)-4-phenethylpiperidin-1-yl)-N,N-dimethylaniline] is > 10 mg/kg. The same measure for `CCOCC1(CCc2ccccc2)CCN(Cc2ccc(CCOC)cc2)CC1` [Compound 128, 4-(ethoxymethyl)-1-(4-(2-methoxyethyl)benzyl)-4-phenethylpiperidine]: > 10 mg/kg.

In the case of `CCOCC1(CCc2ccccc2)CCN(Cc2ccc(COC)cc2)CC1` [Compound 129, 4-(ethoxymethyl)-1-(4-(methoxymethyl)benzyl)-4-phenethylpiperidine HC], the ED50 was > 10 mg/kg.

With `CCOCC1(CCc2ccccc2)CCN(Cc2cc(C)c(NC(C)=O)c(C)c2)CC1` [Compound 130], the ED50 was > 10 mg/kg.

For the molecule `CCOCC1(CCc2ccccc2)CCN(Cc2ccc(CC(C)=O)cc2)CC1` [Compound 131, 1-(4-((4-(ethoxymethyl)-4-phenethylpiperidin-1-yl)methyl)phenyl)propan-2-one], the ED50 is > 10 mg/kg. For the molecule `CCOCC1(COCc2ccccc2)CCN(Cc2ccc(NC(C)=O)cc2)CC1.Cl` [Compound 132, N-(4-((4-(benzyloxymethyl)-4-(ethoxymethyl)piperidin-1-yl)methyl)phenyl)acetamide HCl], the ED50 is > 10 mg/kg. Take `CCOC(=O)C1(CCc2ccccc2)CCCN(Cc2ccc(NC(C)=O)cc2)CC1` (stereo not drawn) [Compound 133, ethyl 1-(4-acetamidobenzyl)-4-phenethylazepane-4-carboxylate]: the ED50 is > 10 mg/kg. The figure for `CCOCC1(CCc2ccccc2)CCN(Cc2ccc(-c3nccs3)cc2)CC1` [Compound 134, 2-(4-((4-(ethoxymethyl)-4-phenethylpiperidin-1-yl)methyl)phenyl)thiazole] is > 10 mg/kg; for `CCOCC1(CCc2ccccc2)CCN(Cc2ccc(-c3nc(C)no3)cc2)CC1.Cl` [Compound 135, 5-(4-((4-(ethoxymethyl)-4-phenethylpiperidin-1-yl)methyl)pheny)-3-methyl-1,2,4-oxadiazole HCl] it is > 10 mg/kg. As to `CCOCC1(CCc2ccccc2)CCN(Cc2ccc(-c3ncon3)cc2)CC1.Cl` [Compound 136, 3-(4-((4-(ethoxymethyl)-4-phenethylpiperidin-1-yl)methyl)phenyl)-1,2,4-oxadiazole HCl], the ED50 is > 10 mg/kg. The figure for `CCOCC1(CCc2ccccc2)CCN(Cc2ccc(-c3nnco3)cc2)CC1` [Compound 137, 2-(4-((4-(ethoxymethyl)-4-phenethylpiperidin-1-yl)methyl)phenyl)-1,3,4-oxadiazole] is > 10 mg/kg; for `CCOCC1(CCc2ccccc2)CCN(Cc2ccc(-c3nncs3)cc2)CC1` [Compound 138, 2-(4-((4-(ethoxymethyl)-4-phenethylpiperidin-1-yl)methyl)phenyl)-1,3,4-thiadiazole] it is > 10 mg/kg. The same measure for `CCOCC1(CCc2ccccc2)CCN(Cc2ccc(-c3cncs3)cc2)CC1` [Compound 139, 5-(4-((4-(ethoxymethyl)-4-phenethylpiperidin-1-yl)methyl)phenyl)thiazole]: > 10 mg/kg. Take `CCOCC1(CCc2ccccc2)CCN(Cc2ccc(-c3ncc[nH]3)cc2)CC1` [Compound 140, 1-(4-(1H-imidazol-2-yl)benzyl)-4-(ethoxymethyl)-4-phenethylpiperidine]: the ED50 is > 10 mg/kg. Take `CCOCC1(CCc2ccccc2)CCN(Cc2ccc(-c3cnc[nH]3)cc2)CC1` [Compound 141, 1-(4-(1H-imidazol-5-yl)benzyl)-4-(ethoxymethyl)-4-phenethylpiperidine]: the ED50 is > 10 mg/kg. Take `CCOCC1(CCc2ccccc2)CCN(Cc2ccc(CC(=O)O)cc2)CC1` [Compound 142, 2-(4-((4-(ethoxymethyl)-4-phenethylpiperidin-1-yl)methyl)phenyl)acetic acid]: the ED50 is > 10 mg/kg.

On to `CCOCC1(CCc2ccccc2)CCN(Cc2ccc(CC(=O)N(C)OC)cc2)CC1` [Compound 143, 2-(4-((4-(ethoxymethyl)-4-phenethylpiperidin-1-yl)methyl)phenyl)-N-methoxy-N-methylacetamide], for which the ED50 was > 10 mg/kg. Regarding `CCOCC1(CCc2ccccc2)CCN(Cc2ccc(C(=O)OC)cc2)CC1` [Compound 144, methyl 4-((4-(ethoxymethyl)-4-phenethylpiperidin-1-yl)methyl)benzoate], the ED50 was > 10 mg/kg.

Consider `CCOCC1(CCc2ccccc2)CCN(Cc2ccc(C(=O)O)cc2)CC1` [Compound 145, 4-((4-(ethoxymethyl)-4-phenethylpiperidin-1-yl)methyl)benzoic acid], for which the ED50 was > 10 mg/kg.

Regarding `CCOCC1(CCc2ccccc2)CCN(Cc2ccc(C(C)=O)cc2)CC1` [Compound 146, 1-(4-((4-(ethoxymethyl)-4-phenethylpiperidin-1-yl)methyl)phenyl)ethanone], the ED50 is > 10 mg/kg.

Turning to `CCOCC1(CCc2ccsc2)CCN(Cc2ccc(NC(C)=O)cc2)CC1` [Compound 147, N-(4-((4-(ethoxymethyl)-4-(2-(thiophen-3-yl)ethyl)piperidin-1-yl)methyl)phenyl)acetamide], the ED50 is < 10 mg/kg.

Regarding `CCOCC1(CCc2ccc3ccccc3c2)CCN(Cc2ccc(NC(C)=O)cc2)CC1` [Compound 148, N-(4-((4-(ethoxymethyl)-4-(2-(naphthalen-2-yl)ethyl)piperidin-1-yl)methyl)phenyl)acetamide], the ED50 is > 10 mg/kg. On to `CCOCC1(CCc2ccccn2)CCN(Cc2ccc(NC(C)=O)cc2)CC1` [Compound 149, N-(4-((4-(ethoxymethyl)-4-(2-(pyridin-2-yl)ethyl)piperidin-1-yl)methyl)phenyl)acetamide], for which the ED50 was > 10 mg/kg. Turning to `CCOCC1(CCc2ccccc2)CCN(Cc2ccc(Br)cc2)CC1` [Compound 150, 1-(4-bromobenzyl)-4-(ethoxymethyl)-4-phenethylpiperidine], the ED50 is > 10 mg/kg.

As to `CCOCC1(CCc2ccccc2)CCN(Cc2ccc(C#N)cc2)CC1` [Compound 151, 4-((4-(ethoxymethyl)-4-phenethylpiperidin-1-yl)methyl)benzonitrile], the ED50 was > 10 mg/kg. Take `CCOCC1(CCc2ccccc2)CCN(Cc2ccc(B3OC(C)(C)C(C)(C)O3)cc2)CC1` [Compound 152, 4-(ethoxymethyl)-4-phenethyl-1-(4-(4,4,5,5-tetramethyl-1,3,2-dioxaborolan-2-yl)benzyl)piperidine]: the ED50 was > 10 mg/kg. Take `CCOCC1(CCc2ccccc2)CCN(Cc2ccc(-c3cn[nH]n3)cc2)CC1` [Compound 153, 1-(4-(2H-1,2,3-triazol-4-yl)benzyl)-4-(ethoxymethyl)-4-phenethylpiperidine]: the ED50 is > 10 mg/kg. Turning to `CCOCC1(CCc2ccccc2)CCN(Cc2ccc(-c3nnn[nH]3)cc2)CC1.Cl` [Compound 154, 1-(4-(1H-tetrazol-5-yl)benzyl)-4-(ethoxymethyl)-4-phenethylpiperidine HCl], the ED50 is > 10 mg/kg. The figure for `CCOCC1(CCc2ccccc2)CCN(Cc2ccc(-c3n[nH]c(=O)[nH]3)cc2)CC1` [Compound 155, 3-(4-((4-(ethoxymethyl)-4-phenethylpiperidin-1-yl)methyl)phenyl)-1H-1,2,4-triazol-5(4H)-one] is > 10 mg/kg; for `CCOCC1(CCc2ccccc2)CCN(Cc2ccc(C(C)O)cc2)CC1.Cl` (stereo not drawn) [Compound 156, 1-(4-((4-(ethoxymethyl)-4-phenethylpiperidin-1-yl)methyl)phenyl)ethanol HCl] it is > 10 mg/kg. The same measure for `CCOCC1(CCc2ccccc2)CCN(Cc2ccc(-n3ccnn3)cc2)CC1` [Compound 157]: > 10 mg/kg; for `CCOCC1(CCc2ccccc2)CCN(Cc2ccc(-n3nccn3)cc2)CC1` [Compound 158]: > 10 mg/kg. Take `CCOC(C)C1(CCc2ccccc2)CCN(Cc2ccc(NC(C)=O)cc2)CC1.Cl` (stereo not drawn) [Compound 159, N-(4-((4-(1-ethoxyethyl)-4-phenethylpiperidin-1-yl)methyl)phenyl)acetamide HCl]: the ED50 is > 10 mg/kg. The figure for `CC(=O)Nc1ccc(CN2CCC(CCc3ccccc3)(C3CCC(C)O3)CC2)cc1` (stereo not drawn) [Compound 160, N-(4-((4-(5-methyltetrahydro-furan-2-yl)-4-phenethylpiperidin-1-yl)methyl)phenyl)acetamide] is < 10 mg/kg. The figure for `CCOCC1(CCc2ccccc2)CCN(Cc2ccc(CC(N)=O)cc2)CC1` [Compound 161, 2-(4-((4-(ethoxymethyl)-4-phenethylpiperidin-1-yl)methyl)phenyl)acetamide] is > 10 mg/kg. On to `CCOCC1(CCc2ccccc2)CCN(Cc2ccc(CC(=O)NC)cc2)CC1` [Compound 162, 2-(4-((4-(ethoxymethyl)-4-phenethylpiperidin-1-yl)methyl)phenyl)-N-methylacetamide], for which the ED50 is > 10 mg/kg.
